Earlier results on 3 compounds are cited in paper PMC6738096 (British Journal of Cancer, 2019).

One series relates to ALK-positive NSCLC. Set-up: method as in not given. Particulars: ALK pre-treated setting, post crizotinib; ref not given; cited from earlier work.
The conditions of series [1]: cited from earlier work.

With `COc1cc(N2CCC(N3CCN(C)CC3)CC2)ccc1Nc1ncc(Cl)c(Nc2ccccc2P(C)(C)=O)n1` [brigatinib], the Objective response rate with ALK-positive NSCLC is given as 45–54%. The “QTc prolongation in clinical trials” value in series [1] was “QTc was not prolonged to any clinically relevant extent”.
As to `Cc1cc(Nc2ncc(Cl)c(Nc3ccccc3S(=O)(=O)C(C)C)n2)c(OC(C)C)cc1C1CCNCC1` [ceritinib], in the series with ALK-positive NSCLC, the Objective response rate is recorded as 55%. In series [1] (among 919 patients), the “Patients with QTc > 500 ms” value was 1.3% and the “Patients with ΔQTc of > 60 ms” value was 6%.
In the case of `C[C@H]1Oc2cc(cnc2N)-c2c(nn(C)c2C#N)CN(C)C(=O)c2ccc(F)cc21` [lorlatinib], the Objective response rate in the series with ALK-positive NSCLC is on record as 48%.
